The numbers were not newly measured in patent USH1286H, “Method for treating peripheral atherosclerotic disease employing a cholesterol lowering drug, an ACE inhibitor, or a combination thereof” (E. R. Squibb & Sons, Inc., priority 1990, dated 1994), which cites them from elsewhere.

Structures are written as SMILES.

The conditions of the data set: hypercholesterolemic patients; Costa et al., Am. J. Hyperten. 1988.

As to `C[C@H](CS)C(=O)N1CCC[C@H]1C(=O)O` [captopril, 1-[(2S)-3-mercapto-2-methylpropionyl]-L-proline], the “increase of HDL” value is 27% and the “reduction of serum cholesterol” value is -18%.
